We go through 1 compound from publication PMC12549899 (Nature Communications, 2025).

The target of this assay is T1, DrOTOP1 G130W/E384A (Danio rerio, UniProt Q7ZWK8, E384A/G130W).
T1 construct: A previously generated codon-optimized full-length DrOTOP1[8]; (UniProt: Q7ZWK8) construct; expressed in transfected cells; host or cells: HEK-293 (CRL-1573, ATCC)
T1 sequence (Q7ZWK8 1-586 G130W/E384A): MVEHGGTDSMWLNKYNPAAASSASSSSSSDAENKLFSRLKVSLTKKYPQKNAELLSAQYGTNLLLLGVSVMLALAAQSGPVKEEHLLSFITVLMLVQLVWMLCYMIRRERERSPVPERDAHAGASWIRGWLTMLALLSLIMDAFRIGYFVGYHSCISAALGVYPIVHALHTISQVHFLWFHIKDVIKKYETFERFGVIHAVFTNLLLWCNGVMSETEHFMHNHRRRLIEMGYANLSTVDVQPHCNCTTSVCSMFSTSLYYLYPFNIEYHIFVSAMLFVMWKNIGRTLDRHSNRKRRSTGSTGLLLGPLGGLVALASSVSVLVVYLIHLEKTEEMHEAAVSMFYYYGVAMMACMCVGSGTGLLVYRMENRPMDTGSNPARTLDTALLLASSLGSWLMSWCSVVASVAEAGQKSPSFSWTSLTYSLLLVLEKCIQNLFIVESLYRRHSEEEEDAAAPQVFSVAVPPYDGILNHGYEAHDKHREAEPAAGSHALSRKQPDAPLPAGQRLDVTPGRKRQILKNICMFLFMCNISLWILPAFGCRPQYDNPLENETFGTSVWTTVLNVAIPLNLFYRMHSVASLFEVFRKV
Description: Whole-cell patch-clamp, inhibition of acid-evoked currents, DrOTOP1 G130W/E384A. The format is cell-based, zebrafish (Danio rerio). As to the method: Given our limited success in identifying mutations of the central site that disrupt antagonism by C2.2, we tested whether mutations of the central site in a background of G130W (the most impactful outer site mutation) might unmask contributions of this site. Thus, we generated and tested double mutants of G130W with E384A, A274W, and A388W. […] We also measured the dose-dependence of inhibition by C2.2 for both G130W/A388W and G130W/E384A (Fig. 5I, J). […] G130W was tested in parallel to confirm that 100 and 300 μM C2.2 produced dose-dependent inhibition.
HEK-293 cells (CRL-1573, ATCC) were cultured in DMEM (Thermofisher 11995073) containing 10% fetal bovine serum (Life Technology 16000044) and Penicillin-Streptomycin (100 I.U./mL) and (100 µg/mL), respectively. Cells were transfected with WT DrOTOP1 or mutant DrOTOP1 channels in 35 mm petri dishes, with ~ 500 ng DNA and 2 μL TransIT-LT1 transfection reagent (Mirus Bio Corporation, Cat # MIR2300) following the manufacturer’s protocol. All constructs were subcloned into a pcDNA3.1 vector that adds an N-terminal fusion tag consisting of an octahistidine tag followed by eGFP, a Gly-Thr-Gly-Thr linker and a 3C protease cleavage site ([…]) followed by WT DrOTOP1, WT mOTOP1, WT hOTOP1, or mutated DrOTOP1. Point mutations were generated via In-Fusion Cloning (Takara) using single-stranded DNA primers generated through IDT and sequence confirmed by Sanger sequencing (GeneWiz).
Whole-cell patch-clamp recording was performed as previously described[6],[22],[25]. Recordings were made with an Axopatch 200B amplifier, digitized with a Digidata 1322a 16-bit data acquisition system, acquired with pClamp 8.2 and analyzed with Clampfit 10 (Molecular Devices). Recordings were sampled at 5 kHz and filtered at 1 kHz. Patch Pipettes with resistance of […] were fabricated from borosilicate glass, and only recordings with a giga-Ohm seal were used in analysis. Membrane potential was held at −80 mV for the duration of recordings. At the beginning of recordings and between, cells were washed with Tyrode’s solution (see below). Once a giga-Ohm seal was reached, cells were lifted and placed in front of microcapillary tubes controlled by a Fast-Step perfusion system (Warner Instruments) so that extracellular solutions could be rapidly exchanged during each experiment.
Standard Tyrode’s solution consisted of 145 mM NaCl, 5 mM KCl, MgCl2, 2 mM CaCl2, 20 mM D-Glucose, and 10 mM HEPES (for pH 7.4). All other extracellular patch-clamp solutions contained 160 mM NMDG-Cl, 2 mM CaCl2, and the following buffers: 10 mM HEPES (for pH 7.4), 10 mM MES (for pH 6.5-5.5), 10 mM CHES for pH 10, and 10 mM HomoPIPES for (pH 5.0). pH adjusted with HCl. […]
All data are presented as mean ± SEM unless otherwise noted, and each data point represents an independent replicant. Inhibition of compounds was quantified as ((I2peak-I1)/(I2peak))*100, where I1 is the current immediately before wash-off and I2peak is the maximum recovered current (Supplementary Fig. 2). Hill coefficients were determined by the following equation: Y = Bmax*X^h/(Kd^h + X^h). Absolute IC50 was determined by the following equation: Fifty = (Top + Baseline)/2 Y = Bottom + (Top-Bottom)/(1 + ((Top-Bottom)/(Fifty-Bottom) − 1)*(AbsoluteIC50/X)^HillSlope). pH50 curves (Fig. 6G inset) were determined using the following equation: Y = Bottom + (Top-Bottom)/(1 + (EC/X)^HillSlope) where EC = EC50 control. […]
Background: Patch clamp records ionic current or voltage across a cell membrane.

On to `C=C(C)COc1ccccc1NC(=O)c1nc[nH]c1C` [C2.2], for which, for the setting “10 µM, DrOTOP1 G130W/E384A, single cells or mean”, the inhibition at 10 µM was determined as 3.23%. Moreover, the inhibition at 300 µM (DrOTOP1 G130W/E384A, saturated by 100 µM, no further inhibition at 300 µM, read-out: Maximal inhibition (saturation)) was around 50%. Moreover, for the setting “G130W/E384A, best-fit value”, the HillSlope is given as 2.538 and the LogAbsoluteIC50 is recorded as 1.644. Also, the IC50 (G130W/E384A, best-fit value, Top fitted, Bottom = 0, read-out: AbsoluteIC50) turned out to be 44.1 µM.
